# Results taken from patent publication US8653146B2, “Method for treating Th17 inflammatory disease through inhibition of vascular endothelial growth factor receptors and pharmaceutical composition therefor” (Postech Academy-Industry Foundation, priority 2009, dated 2014).
# Experiments:
# Format in all cases: in vivo, C57BL/6 mice
# [1] = tested on: inflammatory cells in BAL fluid; test: Inflammatory cell count in BAL fluid of OVA/LPS-sensitized asthma animal models; conditions: SU5416 1 mg/kg or 10 mg/kg i.p. 30 min before OVA/LPS sensitization (days 0, 1, 2, 7); 48 hours after last OVA injection (day 24); FIG. 9
# Experimental: (§1) To construct asthma animal models, C57BL/6 (female, 6 weeks old) mice were divided into groups, each consisting of five mice and sensitized with 75 μg of ovalbumn (OVA) as an allergen and 10 μg of an endotoxin (lipopolysaccharide, LPS) as an adjuvant via an intranasal route on Day 0, 1, 2 and 7. Some mice in experiment groups were intraperitoneally injected with SU5416 (purchased from Sigma) at a dose of 1 mg/kg or 10 mg/kg, or anti-Flk-1 (purchased from R&D systems) at a dose of 0.1, 1 or 10 μg 30 min before the intranasal administration of OVA and LPS. On days 14, 15, 21 and 22, OVA (50 μg) was intranasally administered to the animals after anesthesia.
# The mice were examined for pulmonary inflammation 6 hours (day 22) and 48 hours (day 24) after the last OVA administration. […]
# (§2) The BAL fluid was centrifuged at 4° C. at 3000 rpm for 10 min and the cell pellet thus formed was suspended in PBS (phosphate buffered saline). […] In a 1000× magnified sight under an optical microscope, 300 or more inflammatory cells were observed and classified into macrophages, lymphocytes, neutrophils, and eosinophils which were then counted. In addition, levels of gamma interferon, responsible for Th1 inflammatory response, and IL-17 and IL-6, both responsible for Th17 inflammatory response, in the BAL fluid were quantified by ELISA. […]
# [2] = tested on: gamma interferon, IL-17 and IL-6 in BAL fluid; test: Cytokine levels (gamma interferon, IL-17, IL-6) in BAL fluid of OVA/LPS asthma animal models by ELISA
# Experimental: as §1
# The mice were examined for pulmonary inflammation 6 hours (day 22) and 48 hours (day 24) after the last OVA administration. In this regard, the mice were anesthetized by intraperitoneal injection of a mixture of ketamin and xylazine and allowed to undergo thoracotomy to expose the trachea into which a catheter was then inserted, followed by ligation. The airway was washed by injecting 1 mL of sterile saline twice to obtain bronchoalveolar lavage (BAL) fluid. […]
# as §2
# Mice in the experimental groups were intraperitoneally injected with 0.1, 1.0 and 10 μg of a monoclonal antibody against VEGFR-2 (anti-Flk-1, R&D Systems) while mice in the control group were intraperitoneally injected with PBS. […] BAL fluid obtained 24 hours after the sensitization (day 1) was quantitatively analyzed for inflammatory cell and IL-6 levels and the results are shown in FIG. 13.
# [3] = tested on: immune cells isolated from local lymph nodes; test: Cytokine secretion by local lymph node immune cells in response to allergen (OVA) stimulus, ELISA; conditions: SU5416 upon sensitization; six hours after three OVA challenges (day 21); FIGS. 10b and 10c
# Experimental: as §1, with “On days 14, 15, 21 and 22, OVA (50 μg) was intranasally administered to the animals after anesthesia.” left out
# (§3) In this regard, the mice were anesthetized by intraperitoneal injection of a mixture of ketamin and xylazine and allowed to undergo thoracotomy to expose the trachea into which a catheter was then inserted, followed by ligation. The airway was washed by injecting 1 mL of sterile saline twice to obtain bronchoalveolar lavage (BAL) fluid. For the analysis of T lymphocytes in pulmonary tissues, cells were extracted from the local lymph nodes of the lung excised.
# The cells obtained from the lymph nodes were incubated for 72 hours in RPMI (Gibco) supplemented with 100 μg/ml OVA, 10% FBS, and an antibiotic before respective cytokines responsible for Th1-, Th17- and Th2-mediated inflammatory responses were quantified using ELISA. […]
# [4] = tested on: Th1- and Th17-mediated immune responses; test: Overall conclusion on lung inflammation and Th1/Th17 immune responses in asthma animal models
# Experimental: VEGFR inhibitors were assayed for inhibitory activity in asthma animal models suffering from Th17-mediated inflammation.
# as §1
# as §3, with “The mice were examined for pulmonary inflammation 6 hours (day 22) and 48 hours (day 24) after the last OVA administration. In” for “In”
# [5] = SU5416 upon sensitization, six hours after three rounds of OVA challenge (day 21), FIG. 10a
compound,measurement,setting,value
"Cc1cc(C)c(/C=C2\C(=O)Nc3ccccc32)[nH]1 [SU5416, Semaxanib]",inflammatory cell count in BAL fluid,[1],reduced in a dose-dependent manner
same,IL-6 level in BAL fluid,"[2]; SU5416 10 mg/kg, 6 hours after three rounds of sensitization with OVA and LPS, vs OVA/LPS_sham, FIG. 11",lower amounts of IL-6 than did the control
same,level of IL-17 in BAL fluid,[2]; [5],significantly decrease
same,level of gamma interferon in BAL fluid,[2]; [5],significantly decrease
same,IL-17 secreted by local lymph node immune cells in response to allergen stimulus,[3],significantly decreased level
same,gamma interferon secreted by local lymph node immune cells in response to allergen stimulus,[3],significantly decreased level
same,inflammation in the lung,[4]; summary of Examples 1 and 2,excellently suppress inflammation in the lung
same,Th1- and Th17-mediated immune responses,"[4]; summary of Examples 1 and 2, immunological perspective",suppressive of Th1- and Th17-mediated immune responses
